Reference: ChEMBL document CHEMBL1157539, “Thousands of chemical starting points for antimalarial lead identification” (Nature, 2010)

System: Plasmodium falciparum
Assay: GSK_TCMDC: Inhibition of Plasmodium falciparum 3D7 in whole erythrocytes, using parasite LDH activity as an index of growth.
Format: functional, organism-based
Details: Plasmodium falciparum, 3D7

SMILES	XC50 [nM]
O=[N+]([O-])c1ccc(/C=N/O)nc1	872
COc1cc(/C=N/Nc2nc(Nc3ccccc3)nc(Nc3ccccc3)n2)ccc1OCc1ccccc1[N+](=O)[O-]	806
CCc1nc(N)nc(N)c1-c1ccc(C(C)(C)C)cc1	235
COc1ccc(NC(=O)NC2CCN(c3ccnc4cc(Cl)ccc34)C2)cc1 (stereo not drawn)	99.3
CCCCCN1CCC(NS(=O)(=O)c2cccc(C(=O)Nc3ccc(Cl)cc3)c2)CC1	918
COc1ccc2nc3cc(Cl)ccc3c(NCCCO)c2c1	783
CC(C)(C)c1ccc(-c2nc3c(ccc4nc(N)nc(N)c43)[nH]2)cc1	158
O=C(O)CCSc1ncnc2[nH]cnc12	129
Oc1ccc(CCNc2nc(NCc3cccc(OCc4cccc(F)c4)c3)nc(N3CCNCC3)n2)cc1	1340
O=C(/C=C/c1cccc(Br)c1)NCCCCCN1CCC(c2c[nH]c3ccccc23)CC1	634
Cc1cccc2nc(-c3ccc(-c4ccc(NC(=O)Nc5ccc(Cl)cc5)cc4)s3)[nH]c12	152
CNC(=O)c1cc(F)c(F)cc1Nc1nc(Nc2cccc(CS(C)(=O)=O)c2)ncc1Cl	1020
COc1ccc(CCNC(=O)c2ccccc2O)cc1-c1ccc(C(C)(C)C)cc1	563
CC(C)CCN(Cc1cncn1Cc1cccc(C(F)(F)F)c1)C(=O)c1cncc(-c2ccccc2)c1	774
CCNc1cc(C(=O)N[C@@H](Cc2ccccc2)[C@H](O)CNCc2cc(OC)cc(OC)c2)cc(N2CCCC2=O)c1	736
CN(c1cc(NC(=O)c2ccc(F)cc2)ccn1)C1CCN(Cc2cccc(F)c2)CC1	495
O=C(/C=C/c1ccc(Cl)c(Cl)c1)NCCCCCCN1CCN(C(=O)Nc2cccc(Cl)c2)CC1	981
Cc1cc(NC(=O)c2cc(Br)ccc2Cl)n(-c2nc(C)c(C)c(=O)[nH]2)n1	1130
COc1ccc2nccc([C@@H](O)CN3CCC(NCCOc4ccccc4C(F)(F)F)CC3)c2c1	753

SMILES	XC50 [nM]
Clc1ccccc1CCNCC1CCN(CC2CCCCC2)CC1	692
COc1ccc(C(C(=O)NC2CCN(C[C@H](O)c3ccnc4ccc(OC)cc34)CC2)N2CCN(c3ccc(Cl)c(Cl)c3)CC2)cc1 (stereo partly drawn)	204
O=C(NCCCCCN1CCC(c2c[nH]c3ccccc23)CC1)Nc1ccc(I)cc1	991
NC(=O)C1CCN(Cc2cccc(-c3ccc(-c4nc5cc(C(F)(F)F)ccc5[nH]4)cc3)c2)CC1	610
CN1CCC(Oc2ccc(CN3CC[C@H](NC(=O)c4cccc(C#N)c4)C3)c3ccccc23)C1 (stereo partly drawn)	804
S=C(NCC1CCCCC1)NC1CCC(CN2CCC(c3c[nH]c4ccccc34)CC2)CC1 (stereo not drawn)	1110
O=C1NC(c2ccc(N3CCCCCC3)cc2)Nc2ccccc21 (stereo not drawn)	566
COc1ccccc1/C=C/C(=O)N(C)C1CCN(CCCCCNC(=O)/C=C/c2ccc(Cl)c(Cl)c2)C1 (stereo not drawn)	867
CCCCc1ccc(S(=O)(=O)Nc2ccc3c(c2)CCN(Cc2c[nH]c4cnccc24)CC3)cc1	674
CCC(C)(C)c1ccc(N2C(N)=NC(N)=NC2(C)C)cc1	11.8
CCNc1cc(C(=O)N[C@@H](Cc2ccccc2)[C@H](O)CN[C@@H]2CCc3ccccc32)cc(N2CCCCS2(=O)=O)c1	555
N#Cc1cncc(-c2nc3c(N4CCN(c5cnccn5)CC4)cccc3n2CCNCc2ccccc2)c1	912
CC(CNC(=O)[C@H]1CNCCN1C(=O)CCCc1ccccc1)c1ccccc1 (stereo partly drawn)	915
CCC(C)NS(=O)(=O)c1ccc2nc(Nc3ccc(C)c(Cl)c3)n(C3CCCCC3)c2c1 (stereo not drawn)	511
Cc1ccc(-n2ncc(C(=O)Nc3cc(Cl)cc(Cl)c3)c2C2CCNCC2)cc1C	551
CO[C@@H]1C[C@@H](C(=O)Nc2ccccc2)N(c2ccc(C#N)c3ccccc23)C1	907
COCCn1c(-c2cccc(Cl)c2)nn(-c2ccc([N+](=O)[O-])cc2C#N)c1=S	178
O=C(NCCCCCN1CCC(c2c[nH]c3ccccc23)CC1)Nc1cccc(C(F)(F)F)c1	1000
CN=C(NC)c1cccc(NC(=O)C=Cc2ccc(C=CC(=O)Nc3cccc(C(=NC)NC)c3)cc2)c1	164
